ChEMBL document CHEMBL5143508, “Design, synthesis and biological evaluation of novel o-aminobenzamide derivatives as potential anti-gastric cancer agents in vitro and in vivo” (Eur J Med Chem, 2022)
Where “and” joins values, the source holds several entries; their conditions need not be identical. Identical values can stand only once.

Key:
SGC-7901 = assay: cells; format: functional, cell-based; conditions: Homo sapiens, SGC-7901, 72 h
Description: Cytotoxicity against human SGC-7901 cells assessed as inhibition of cell growth incubated for 72 hrs by MTT assay

AGS = assay: cells; format: functional, cell-based; conditions: Homo sapiens, 72 h
Description: Cytotoxicity against human AGS cells assessed as inhibition of cell growth incubated for 72 hrs by MTT assay

BGC-823 = assay: cells; format: functional, cell-based; conditions: Homo sapiens, BGC-823, 72 h
Description: Cytotoxicity against human BGC-823 cells assessed as inhibition of cell growth incubated for 72 hrs by MTT assay

MGC-803 = assay: cells; format: functional, cell-based; conditions: Homo sapiens, MGC-803, 72 h
Description: Cytotoxicity against human MGC-803 cells assessed as inhibition of cell growth incubated for 72 hrs by MTT assay

HGC-27 [1] = assay: cells; format: functional, cell-based; conditions: Homo sapiens, HGC-27, 72 h
Description: Cytotoxicity against human HGC-27 cells assessed as inhibition of cell growth incubated for 72 hrs by MTT assay

in vitro [2] = conditions: human, GES1 cells
Description: Cytotoxicity against human GES1 cells assessed as inhibition of cell growth incubated for 72 hrs by MTT assay

in vitro [3] = conditions: human, WI-38 cells
Description: Cytotoxicity against human WI-38 cells assessed as inhibition of cell growth incubated for 72 hrs by MTT assay

HGC-27 [4] = assay: Antitumor activity against human HGC-27 cells xenografted in BALB/c mouse assessed as tumor growth inhibition at 150 mg/kg, po bid administered for 19 days; format: functional; conditions: HGC-27, 456 h, time 19 day, read-out: TGI
[5] = Toxicity in BALB/c mouse xenografted with human HGC-27 cells assessed as lymphocyte level at 150 mg/kg, po bid for 19 days; format: organism-based; conditions: in vivo, 456 h, time 19 day
[6] = Toxicity in BALB/c mouse xenografted with human HGC-27 cells assessed as monocyte level at 150 mg/kg, po bid for 19 days; format: organism-based; conditions: in vivo, 456 h, time 19 day
[7] = Toxicity in BALB/c mouse xenografted with human HGC-27 cells assessed as granulocyte level at 150 mg/kg, po bid for 19 days; format: organism-based; conditions: in vivo, 456 h, time 19 day
[8] = Toxicity in BALB/c mouse xenografted with human HGC-27 cells assessed as RBC level at 150 mg/kg, po bid for 19 days; format: organism-based, Erythrocyte; conditions: in vivo, 456 h, time 19 day
[9] = Toxicity in BALB/c mouse xenografted with human HGC-27 cells assessed as hematocrit level at 150 mg/kg, po bid for 19 days; format: organism-based; conditions: in vivo, 456 h, time 19 day
[10] = Toxicity in BALB/c mouse xenografted with human HGC-27 cells assessed as mean corpuscular volume at 150 mg/kg, po bid for 19 days; format: organism-based; conditions: in vivo, 456 h, time 19 day
[11] = Toxicity in BALB/c mouse xenografted with human HGC-27 cells assessed as red blood cell distribution width at 150 mg/kg, po bid for 19 days; format: organism-based; conditions: in vivo, 456 h, time 19 day
[12] = Toxicity in BALB/c mouse xenografted with human HGC-27 cells assessed as platelet level at 150 mg/kg, po bid for 19 days; format: organism-based; conditions: in vivo, 456 h, time 19 day
[13] = Toxicity in BALB/c mouse xenografted with human HGC-27 cells assessed as mean platelet volume at 150 mg/kg, po bid for 19 days; format: organism-based; conditions: in vivo, 456 h, time 19 day
[14] = Toxicity in BALB/c mouse xenografted with human HGC-27 cells assessed as platelet distribution width at 150 mg/kg, po bid for 19 days; format: organism-based; conditions: in vivo, 456 h, time 19 day
HGC-27 [15] = assay: Antiproliferative activity against human HGC-27 cells measured after 24 hrs by […]; format: functional, cell-based; conditions: HGC-27, 24 h

SMILES | IC50 (SGC-7901) | IC50 (AGS) | IC50 (BGC-823) | IC50 (MGC-803) | IC50 (HGC-27 [1]) | IC50 at 72 h (in vitro [2]) | IC50 at 72 h (in vitro [3]) | other results
O=c1[nH]cc(F)c(=O)[nH]1 [FLUOROURACIL] | 69.8 µM | 23.2 µM | 14 µM | 62.5 µM | 27500 nM | 38.5 µM |  | 
Cc1ccc(C(=O)Nc2ccc(CNC(=O)OCc3cccnc3)cc2)c(N2CCCC2)c1 | 75.2 µM | > 100 µM | > 100 µM | > 100 µM | 1870 nM | > 100 µM | > 100 µM | 
CCCCCOC(=O)Nc1nc(=O)n([C@@H]2O[C@H](C)[C@@H](O)[C@H]2O)cc1F [CAPECITABINE] |  |  |  |  |  |  |  | inhibition in vivo at 150 mg/kg (HGC-27 [4]): 29.9%; Activity [5]: 6.1 10^9/L and 7.45%; Activity [6]: 1.75 10^9/L and 2.18%; Activity [7]: 73.83 10^9/L and 90.38%; Activity [8]: 10.26 10^12/L; Activity [9]: 55.25%; Activity [10]: 53.73 fL; Activity [11]: 15.63%; Activity [12]: 799 10^9/L; Activity [13]: 6.95 fL; Activity [14]: 17.93
O=C(NCc1ccc(NC(=O)c2cccc(F)c2N2CCCC2)cc1)OCc1cccnc1 | > 100 µM | > 100 µM | > 100 µM | > 100 µM | 2020 nM | > 100 µM | > 100 µM | 
O=C(NCc1ccc(NC(=O)c2cc(-c3ccccc3)ccc2N2CCCC2)cc1)OCc1cccnc1 | > 100 µM | > 100 µM | > 100 µM | 10.5 µM | 4340 nM | > 100 µM | > 100 µM | 
Nc1ccccc1NC(=O)c1ccc(CNC(=O)OCc2cccnc2)cc1 [ENTINOSTAT] | > 200 µM | 26.7 µM | 27 µM | 58.6 µM | 18500 nM | 60.2 µM |  | 
C#Cc1cccc(C(=O)Nc2ccc(CNC(=O)OCc3cccnc3)cc2)c1 |  |  |  |  |  |  |  | IC50 (HGC-27 [15]): > 100000 nM
Cc1cccc(C(=O)Nc2ccc(CNC(=O)OCc3cccnc3)cc2)c1N1CCCC1 | > 100 µM | > 100 µM | > 100 µM | > 100 µM | 1030 nM | > 100 µM | > 100 µM | 
O=C(NCc1ccc(NC(=O)c2cc(Cl)ccc2N2CCCC2)cc1)OCc1cccnc1 | > 100 µM | > 100 µM | > 100 µM | 55.5 µM | 750 nM | > 100 µM | > 100 µM | 
O=C(NCc1ccc(NC(=O)c2cc(Br)ccc2N2CCCC2)cc1)OCc1cccnc1 | > 100 µM | > 100 µM | > 100 µM | 45.7 µM | 640 nM | > 100 µM | > 100 µM | 
Cc1ccc(N2CCCC2)c(C(=O)Nc2ccc(CNC(=O)OCc3cccnc3)cc2)c1 | 65.3 µM | 24.7 µM | > 100 µM | 19.1 µM | 1650 nM | > 100 µM | 40.6 µM | 
C#Cc1ccc(N2CCCC2)c(C(=O)Nc2ccc(CNC(=O)OCc3cccnc3)cc2)c1 |  |  |  |  |  |  |  | IC50 (HGC-27 [15]): 2480 nM
O=C(NCc1ccc(NC(=O)c2cc(C(F)(F)F)ccc2N2CCCC2)cc1)OCc1cccnc1 | > 100 µM | > 100 µM | > 100 µM | 42.1 µM | 790 nM | > 100 µM | > 100 µM | 
COc1ccc(N2CCCC2)c(C(=O)Nc2ccc(CNC(=O)OCc3cccnc3)cc2)c1 | 47.2 µM | 25.6 µM | > 100 µM | 85.7 µM | 138000 nM | > 100 µM | 35.6 µM | 
O=C(NCc1ccc(NC(=O)c2ccc(F)cc2N2CCCC2)cc1)OCc1cccnc1 | 56.2 µM | > 100 µM | 74.5 µM | 52.1 µM | 1840 nM | > 100 µM | > 100 µM | 
